Results from paper PMC12490239, “Combining BET inhibition with SMAC mimetics restricts tumor growth and triggers immune surveillance in preclinical cancer models” (Cell Reports Medicine, 2025).

What was measured:
Test in all cases: cells
Set-up in all cases: CellTiter-Glo 2.0 luminescence proliferation/viability assay, single agents, human tumour cell line panel
KM12SM = conditions: 96 h; single agent; read-out: IC50 SMACm
Procedure: (§1) The effect of BETi, SMACm alone or in combination cell viability was determined using a 96-h CellTiter-Glo2.0 proliferation assay. Cells were seeded in assay plates and placed at 37°C with 5% CO2 for twenty-four hours before treatment. Compounds were added in triplicate in gradients of increasing concentrations, in case of SMACm ranging between 4.5 nM and 10 μM and in case of BETi between 1.4 nM and 3 μM. DMSO served as control. Cell viability was measured by luminescence analysis using luminescence read on Envision plate readers (PerkinElmer). An additional set of colorectal cancer cell lines was assayed with technical duplicates and experimental triplicates. Cell viability was measured by luminescence analysis using luminescence read on Tecan Plate reader. The effects of drug combinations were analyzed using the Bliss Independence Model.[34] Synergy score was calculated by the average of 3 highest and 3 lowest BLISS Gaps between predicted and measured POC (Percentage of Control) values. To investigate the synergistic interaction between BI 894999 (hereafter, BETi) and BI 891065 (hereafter, SMACm), we evaluated the in vitro anti-tumor effect of the single agents or the combination in a large panel of 151 cancer cell lines of different tissue origin: CRC, gastric cancer, non-small cell lung cancer (NSCLC), and pancreatic carcinoma (Figures 1C–1F). As a mono-agent, SMACm was able to inhibit cell proliferation only in a limited number of tested cell lines (4%, Table S2). Most of the cell lines responded to inhibition by BETi, with sensitivity ranging from 10 to 100 nM (Figure 1C). Bliss Gap analysis, performed to analyze the effect of the BETi+SMACm combination on tumor cell growth (Figures 1D–1F), unveiled potent synergistic activity across the cell models tested (Figure 1E), independent of tumor type (Figure 1F).  Figure 1 The combinatorial effect of BI 894999 and BI 891065 across a panel of human tumor cell lines (A) Selectivity and potency profiles of BI 891065. Top left, structure of BI 891065. Top right, IC50 values for BI 891065 inhibition of cIAP1, cIAP2, and XIAP. Bottom, physicochemical properties of […]. (B) WES (Simple Western System) analysis of cIAP1, cIAP2, and XIAP levels upon treatment of HT-29 cells with indicated concentrations of BI 891065 for 6 h (C) IC50 values determined in cell proliferation assays (n = 151) individually for BETi BI 894999 and SMACm BI 891065. Each point represents a cell line tested. (D) Example of proliferation assay for synergy analysis in LoVo cell line; shown is combination plate map matrix and the cell growth inhibition (CGI) at the indicated concentrations; CGI values < 100%: tumor cell growth, CGI 100%: tumor cell stasis, and CGI > 100%: tumor cell killing. (E) Synergy scores across the tested panel of cell lines obtained using Bliss synergy analysis. (F) Violin plots showing the synergy scores for BETi and SMACm combination across indications. N is the number of cell lines tested in each indication group.

HCT-15 = conditions: Homo sapiens, HCT-15, 96 h; single agent; read-out: IC50 SMACm
Procedure: as §1

SNU283 = conditions: 96 h; single agent; read-out: IC50 SMACm
Procedure: as §1

Calu-3 = conditions: Homo sapiens, Calu-3, 96 h; single agent; read-out: IC50 SMACm
Procedure: as §1

C32 = conditions: Homo sapiens, C32, 96 h; single agent; read-out: IC50 SMACm
Procedure: as §1

HCC1438 = conditions: 96 h; single agent; read-out: IC50 SMACm
Procedure: as §1

NCI-H358 = conditions: Homo sapiens, NCI-H358, 96 h; single agent; read-out: IC50 SMACm
Procedure: as §1

NUGC-3 = conditions: Homo sapiens, NUGC-3, 96 h; single agent; read-out: IC50 SMACm
Procedure: as §1

NCI-H292 = conditions: Homo sapiens, NCI-H292, 96 h; single agent; read-out: IC50 SMACm
Procedure: as §1

HUTU80 = conditions: Homo sapiens, HuTu80, 96 h; single agent; read-out: IC50 SMACm
Procedure: as §1

RCM-1 = conditions: Homo sapiens, RCM-1, 96 h; single agent; read-out: IC50 SMACm
Procedure: as §1

LS-411N = conditions: Homo sapiens, LS-411N, 96 h; single agent; read-out: IC50 SMACm
Procedure: as §1

SNU1411 = conditions: 96 h; single agent; read-out: IC50 SMACm
Procedure: as §1

BxPC-3 = conditions: Homo sapiens, BXPC-3, 96 h; single agent; read-out: IC50 SMACm
Procedure: as §1

COR-L105 = conditions: Homo sapiens, COR-L105, 96 h; single agent; read-out: IC50 SMACm
Procedure: as §1

IC50 (HCT-15): 2.82 µM | IC50 (SNU283): 3.78 µM | IC50 (Calu-3): 1.46 µM | IC50 (HCC1438): 2.29 µM | IC50 (NCI-H358): > 10 µM | IC50 (NCI-H292): 6.03 µM | IC50 (SNU1411): 4.87 µM | IC50 (BxPC-3): 0.53 µM
SMILES: CN[C@@H](C)C(=O)Nc1ccc(-c2c(-c3cccnc3OC)nc3cc(C)ccn23)c(C#Cc2ccc3c(C)nccc3c2)n1 [SMACm, BI 891065]
IC50 (KM12SM): 4.31 µM | IC50 (C32): 1.09 µM | IC50 (NUGC-3): 4.59 µM | IC50 (HUTU80): 1.36 µM | IC50 (RCM-1): 5.76 µM | IC50 (LS-411N): 4.43 µM | IC50 (COR-L105): 4.47 µM
